Common to all, as to type: cell-based
Test [1] concerns spores of ATCC BBA1870 strain. In words: Inhibition of germination of C. difficile spores (MIC), strain ATCC BBA1870. Particulars: Clostridioides difficile, ATCCBBA1870STRAIN, 1 h; strain 1870; sodium taurocholate as germinant, BHIS medium, 37° C., OD580 for 60 min; read-out: MIC (minimum concentration that completely inhibits spore germination). In short, it runs like this: (§1)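 Spores heat-activated for 30 min at 65° C and washed, then preincubated with compound (10 mM DMSO stock) in BHIS at 37° C. Germination was triggered with sodium taurocholate, and OD580 was read each minute for 60 min. Inhibition = 100% − germination rate, from final vs initial OD relative to germinant-only controls.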

Test [2] concerns spores of ATCC 43255 strain. In words: Inhibition of germination of C. difficile spores (MIC), strain ATCC 43255. Particulars: Clostridioides difficile, ATCC43255, 1 h; strain 43255; sodium taurocholate as germinant, BHIS medium, 37° C., OD580 for 60 min; read-out: MIC (minimum concentration that completely inhibits spore germination). The gist of the method:
as §1

The test system of test [3] is spores of ATCC 630 strain. In words: Inhibition of germination of C. difficile spores (MIC), strain ATCC 630. Particulars: Clostridioides difficile, ATCC630, 1 h; strain 630; sodium taurocholate as germinant, BHIS medium, 37° C., OD580 for 60 min; read-out: MIC (minimum concentration that completely inhibits spore germination). In short, it runs like this:
as §1

For test [4], the system named is various C. difficile spores. The test is described as follows: Inhibition of germination of C. difficile spores, summary over the strains. The note with it: Clostridioides difficile; Table 1, all strains. As to the method:
According to a method disclosed in “The Journal of Infectious Diseases. 2013; 207: 1498-504”, spores of ATCC BBA1870, ATCC 43255 and ATCC 630 strains were obtained by culture and purification, and stored at 4° C.
Spore preparation: the C. difficile spores stored at 4° C. were heat-activated for 30 min at 65° C., centrifuged at 9,400 g for 2 min, and washed three times to remove any self-germinating spores.
Control drug: three cholic acid derivatives, a compound CamSA, a compound 20β (prepared by the method of “Journal of Medicinal Chemistry. 2017, 60 (8): 3451-3471”), and a compound 12a (prepared by the method of “Journal of Medicinal Chemistry. 2018, 61, 6759-6778”), were used as control drugs.
Compound preparation: the compound of the present disclosure, and the positive control drugs CamSA, 20β, and 12a were dissolved in DMSO, to prepare a stock solution with a concentration of 10 mM (prepared for immediate use).
The detection was conducted in a 96-well cell culture plate at a constant temperature of 37° C.; a final volume of each well of the 96-well plate was […] and a buffer was the BHIS medium; 150 μl of spores and drugs were added to the well in advance, and 50 μl of 4 mg/ml sodium taurocholate was added; OD580 was detected every 1 min immediately using a microplate reader, for continuously 60 min. A germination agent control group and a non-germination group were set up; after the detection, a final OD value of each well was compared with an initial value, and compared with the germination agent group to calculate a germination rate and an inhibition rate. A formula for the germination rate was:
Inhibition rate=100%−germination rate.

Values after ≈ are worked out from the molar mass of the structure shown.

As for `CCC(NC(=O)C[C@@H](C)[C@H]1CC[C@H]2[C@@H]3C(=O)C[C@@H]4CC(=O)CC[C@]4(C)[C@H]3CC[C@]12C)c1cccs1` (stereo partly shown) [Compound I-35], the MIC in test [1] is 0.5 µM (≈ 0.249 µg/mL); in test [2], 0.5 µM (≈ 0.249 µg/mL); in test [3], 0.5 µM (≈ 0.249 µg/mL); in test [4], at most 1 µM.
Consider `C[C@H](CC(=O)NC(c1cccs1)C1CC1)[C@H]1CC[C@H]2[C@@H]3C(=O)C[C@@H]4CC(=O)CC[C@]4(C)[C@H]3CC[C@]12C` (stereo partly shown) [Compound I-48], for which the MIC was 0.5 µM (≈ 0.255 µg/mL) in test [1], 0.5 µM (≈ 0.255 µg/mL) in test [2], 0.5 µM (≈ 0.255 µg/mL) in test [3] and at most 1 µM in test [4].
Consider `C[C@H](CC(=O)N[C@@H](c1cccs1)C1CC1)[C@H]1CC[C@H]2[C@@H]3C(=O)C[C@@H]4CC(=O)CC[C@]4(C)[C@H]3CC[C@]12C` [Compound I-50], for which the MIC in test [1] was 0.25 µM (≈ 0.127 µg/mL); in test [2], 0.25 µM (≈ 0.127 µg/mL); in test [3], 0.25 µM (≈ 0.127 µg/mL); in test [4] it was at most 1 µM.
As for `CC[C@@H](NC(=O)C[C@@H](C)[C@H]1CC[C@H]2[C@@H]3C(=O)C[C@@H]4CC(=O)CC[C@]4(C)[C@H]3CC[C@]12C)c1cccs1` [Compound I-37], the MIC was 0.25 µM (≈ 0.124 µg/mL) in test [1], 0.25 µM (≈ 0.124 µg/mL) in test [2], 0.25 µM (≈ 0.124 µg/mL) in test [3] and at most 1 µM in test [4].
In the case of `C[C@H](CC(=O)NC(c1ccc(Cl)s1)C1CC1)[C@H]1CC[C@H]2[C@@H]3C(=O)C[C@@H]4CC(=O)CC[C@]4(C)[C@H]3CC[C@]12C` (stereo partly shown) [Compound I-51], the MIC in test [1] was 0.5 µM (≈ 0.272 µg/mL); in test [2], 0.5 µM (≈ 0.272 µg/mL); in test [3] it was 0.5 µM (≈ 0.272 µg/mL); in test [4], at most 1 µM.
Take `CC(NC(=O)C[C@@H](C)[C@H]1CC[C@H]2[C@@H]3C(=O)C[C@@H]4CC(=O)CC[C@]4(C)[C@H]3CC[C@]12C)c1ccc(Cl)s1` (stereo partly shown) [Compound I-32]: the MIC is 0.5 µM (≈ 0.259 µg/mL) in test [1], 0.5 µM (≈ 0.259 µg/mL) in test [2], 0.5 µM (≈ 0.259 µg/mL) in test [3] and at most 1 µM in test [4].
Consider `CCCC(NC(=O)C[C@@H](C)[C@H]1CC[C@H]2[C@@H]3C(=O)C[C@@H]4CC(=O)CC[C@]4(C)[C@H]3CC[C@]12C)c1cccs1` (stereo partly shown) [Compound I-41], for which the MIC is 0.5 µM (≈ 0.256 µg/mL) in test [1], 0.5 µM (≈ 0.256 µg/mL) in test [2], 0.5 µM (≈ 0.256 µg/mL) in test [3] and at most 1 µM in test [4].
